Laboratory results published in US20130017198A1, “MANIPULATION OF CALCIUM CHANNELS TO REGULATE AFTER-DEPOLARIZATION EVENTS IN CARDIAC MYOCYTES” (THE UAB RESEARCH FOUNDATION, priority 2010, published 2013).
Entries after “also recorded” stand apart in the source; their conditions may differ. Like-named read-outs stand apart in the source and are kept apart here.

Experiments:
[1] = test system: left atrial appendage (LAA); test: Abnormal automatic activity of LAA at high ATX-II concentration; parameters: species or system rat
Protocol: Although moderate concentrations of ATX-II appear to cause after-contractions, high concentrations of ATX-II cause abnormal automatic activity. To further test the hypothesis that after-contractions occur via a separate mechanism from abnormal automatic activity, LAA were exposed to high concentrations (60 nM) of ATX-II. The LAA were then exposed to one of 40 μM LOE-908 without pacing, 20 μM SKF-96365 with 1 Hz pacing, or 40 μM SKF-96365 with 1 Hz pacing.

[2] = test system: left atrial appendage (LAA); test: ATX-II-induced after-contractions (mechanical activity) in paced superfused rat left atrial appendage
Protocol: (§1) To determine whether ATX-II prolongs action potential duration and provokes after-depolarization and after-contractions, paced isolated rat LAA were superfused at 30° C., impaled with glass microelectrodes, and their action potentials were recorded. ATX-II was then added to the superfusate at about 30 nM and action potentials were recorded again.
The LAA was externally paced at 1 Hz throughout.
(§2) A series of experiments was performed to test the hypothesis that the calcium source for after-depolarization is the ARC channel. To test whether after-contractions and after-depolarization require ARC or SOCC activity, experiments were performed with the ARC channel inhibitor LOE-908 and with the SOCC inhibitor SKF-96365. Rat LAA were superfused at 30° C. and exposed to ˜30 nM ATX-II.

[3] = test system: left atrial appendage (LAA); test: Action potential recording / after-depolarization in paced superfused rat LAA exposed to ATX-II; settings: for action potential duration: ~30 nM ATX-II plus LOE-908 or SKF-96365
Source text: For example, isolated superfused muscles can be impaled with conventional glass microelectrodes of 10 to 30 MΩ resistance; these microelectrodes are filled with a solution of 3 M potassium chloride. Microelectrodes are routinely mounted on 30 μm silver-silver chloride spiral wire to allow for freedom of motion. Following the successful impalement of an individual myocyte, action potentials can be recorded with DC coupling at the center of the ring as the difference in voltage between the intracellular microelectrode and the extracellular silver-silver chloride reference electrode. Electrical signals are passed through a high-impedance capacitance-compensation preamplifier and are recorded on a personal computer at a sampling rate of […]. Subsequent data analysis of the action potentials of these muscles is performed using standard software (for an example of such a protocol, see Huang J et al., “Restitution properties during ventricular fibrillation in the in situ swine heart” Circulation 110:3161-3167 (2004), which is hereby incorporated by reference only for such teaching).
as §1
as §2, with “ATX-II. After 10-15 minutes, these muscles produced steady-state after-contractions, prolonged action potential duration and after-depolarization as shown previously.” for “ATX-II.”

[4] = test system: left atrial appendage (LAA); test: Abnormal automatic activity produced by 2-aminoethoxy diphenylborate (SOCC activator) in calcium-loaded LAA; settings: calcium-loaded LAA treated with 2-aminoethoxy diphenylborate
Protocol: To further test the hypothesis that the calcium source for after-depolarization is not the SOCC, calcium-loaded LAA were treated with 2-aminoethoxy diphenylborate (an activator of the SOCC) to produce abnormal automatic activity. The LAA were then treated with either LOE-908 or SKF-96365.

[5] = target: T1, store-operated calcium channel (SOCC) (Rattus norvegicus, UniProt Q5M848); test: Effect on store-operated calcium channel activity
T1 construct: from tissue; host or cells: rat left atrial appendage (LAA) muscle

ARC channel = target: T2, ARC channel (Rattus norvegicus, UniProt Q5M848+Q6AXR8); test: Effect on ARC channel activity
T2 construct: from tissue; host or cells: rat left atrial appendage (LAA) muscle

[6] = test system: isolated rat cardiac muscle; test: After-contractions in isolated rat cardiac muscle incubated with ATX-II and CPLA2 inhibitors; settings: for IC50: isolated rat cardiac muscle incubated with ATX-II, read-out: IC50 (frequency of aftercontractions)
Protocol: In a separate experiment, isolated rat cardiac muscle was incubated with ATX-II in the presence of varying concentrations of amylcinnamoyl-anthranilic acid.

CPLA2 = target: T3, CPLA2 (Homo sapiens, UniProt P47712); settings: selective inhibitor of CPLA2; cited from earlier work
T3 sequence (P47712 1-749): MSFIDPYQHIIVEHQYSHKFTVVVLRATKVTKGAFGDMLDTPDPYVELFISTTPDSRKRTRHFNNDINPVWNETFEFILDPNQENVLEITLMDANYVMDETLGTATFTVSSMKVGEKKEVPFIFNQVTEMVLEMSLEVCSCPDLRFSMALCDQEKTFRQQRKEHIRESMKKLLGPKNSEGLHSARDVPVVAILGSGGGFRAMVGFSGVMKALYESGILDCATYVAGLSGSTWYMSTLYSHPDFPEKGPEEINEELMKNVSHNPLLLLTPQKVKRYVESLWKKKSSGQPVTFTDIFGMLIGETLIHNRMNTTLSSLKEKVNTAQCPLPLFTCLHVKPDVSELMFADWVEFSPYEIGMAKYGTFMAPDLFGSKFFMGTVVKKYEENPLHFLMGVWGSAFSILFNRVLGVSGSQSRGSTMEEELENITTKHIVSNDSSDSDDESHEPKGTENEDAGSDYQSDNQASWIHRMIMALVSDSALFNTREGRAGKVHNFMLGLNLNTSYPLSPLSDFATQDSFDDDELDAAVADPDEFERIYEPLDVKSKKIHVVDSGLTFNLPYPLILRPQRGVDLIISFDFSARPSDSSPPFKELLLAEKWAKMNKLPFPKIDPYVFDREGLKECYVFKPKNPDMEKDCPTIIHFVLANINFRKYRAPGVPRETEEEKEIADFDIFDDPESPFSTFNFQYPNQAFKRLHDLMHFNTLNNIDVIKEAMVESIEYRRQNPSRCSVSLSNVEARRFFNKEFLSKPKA

CPLA2 activity in vivo = settings: cited from earlier work
[7] = increasing concentrations, ~30 nM ATX-II, rat LAA at 30° C.
[8] = increasing concentrations, ~30 nM ATX-II, data not shown
[9] = LAA pre-treated with the compound, then ATX-II
[10] = 0.6 μM ryanodine, after steady-state ATX-II after-contractions

T1 sequence (Q5M848 whole entry): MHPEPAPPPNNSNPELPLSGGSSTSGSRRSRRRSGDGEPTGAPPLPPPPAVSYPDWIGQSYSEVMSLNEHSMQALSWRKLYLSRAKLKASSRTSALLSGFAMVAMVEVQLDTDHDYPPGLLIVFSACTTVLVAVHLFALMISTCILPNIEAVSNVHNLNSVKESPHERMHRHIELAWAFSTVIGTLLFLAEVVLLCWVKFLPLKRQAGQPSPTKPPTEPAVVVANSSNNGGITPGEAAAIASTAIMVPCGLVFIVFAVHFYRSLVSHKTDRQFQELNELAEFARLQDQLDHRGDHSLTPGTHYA
T2 sequence (Q5M848 whole entry, other chains not shown): as the sequence (Q5M848 whole entry) above

## ATX-II: Anemonia sulcata toxin, sodium channel regulator that increases the late sodium current; arrhythmic agent
[1]; 60 nM ATX-II, FIG. 8A
  rate of rapid contraction in the absence of pacing: 4 Hz
[1]; 60 nM ATX-II, FIG. 8B
  rate of automatic activity persisting in the absence of pacing: 2.7-3.3 Hz
[1]; 60 nM ATX-II, left atria paced at 1 Hz
  after-contractions: displayed after-contractions
[1]; higher concentration of ATX-II
  abnormal automatic activity: displayed abnormal automatic activity
[2]
  concentration inducing arrhythmia and after-depolarization: 5 to 60 nM
[2]; 30 nM ATX-II, LAA paced at 1 Hz
  after-contractions following each paced contraction: after-contractions are observed
[2]; KH buffer with added glucose
  concentration below which the ability to induce arrhythmia starts to decrease: 10 to 50 nM
[3]; 30 nM ATX-II, paced isolated rat LAA superfused at 30° C.
  action potential duration and early after-depolarization: produced prolonged action potential duration and produced early after-depolarization during repolarization

## COc1ccc(CCCOC(Cn2ccnc2)c2ccc(OC)cc2)cc1 (stereo not drawn) [SKF-96365]
[4]
  rate of spontaneous contractions caused by activation of the SOCC: reduces the rate of spontaneous contractions
[1]; 60 nM ATX-II, 20 μM or 40 μM SKF-96365 with 1 Hz pacing
  abnormal automatic activity: either reduced or eliminated abnormal automatic activity
[2]; [7]
  after-contractions: suppressed after-contractions in a dose-dependent manner
[3]; [8]
  after-depolarization: The same was observed
[3]
  action potential duration: remained prolonged

## COc1cc2c(cc1OC)C(C(C(=O)N(CCc1ccc(OC)c(OC)c1OC)CCc1ccc(OC)c(OC)c1OC)c1ccccc1)=NCC2 (stereo not drawn) [LOE-908]
[1]; 60 nM ATX-II, 40 μM LOE-908 without pacing
  abnormal automatic activity: failed to suppress abnormal automatic activity
[2]; 20 μM
  ectopic contractions: no ectopic contractions are observed
[2]; cardiac muscle
  concentration as low as which ectopic contractions are effectively reduced: 1 µM
[2]; [7]
  after-contractions: suppressed after-contractions in a dose-dependent manner
[5]
  store-operated calcium channel (SOCC) activity: no effect on the activity of the store-operated calcium channel
ARC channel
  ARC channel activity: inhibit the activity of the ARC channel
[3]
  concentration as low as which after-depolarization is effectively reduced: 1 µM
  action potential duration: remained prolonged
[3]; 20 μM
  after-depolarization: no after-depolarization is observed
[3]; [8]
  after-depolarization: The same was observed

## CCCCCc1ccc(/C=C/C(=O)Nc2ccccc2C(=O)O)cc1 [ACA]
[6]
  after contractions: suppress after contractions
  concentration as low as which after contractions are suppressed: 10 µM
  IC50: 10 ± 4.5 µM
[6]; 0-50 μM of ACA
  frequency of aftercontractions: decrease with increasing concentration
[3]
  after-depolarization: suppress after-depolarization
  concentration as low as which after-depolarization is suppressed: 10 µM
[3]; listed as amylcinnamoyl-anthranilic acid
  after-depolarization: effectively inhibit after-depolarization

## O=C(CCc1ccc(OCCS(=O)(=O)CCOC(c2ccc(Cl)cc2)c2ccc(Cl)cc2)cc1)C(F)(F)F [BMS-229724, 4-[4-[2-[2-[bis(4-chlorophenyl)methoxy]ethyl-sulfonyl]ethoxy]phenyl]-1,1,1-trifluoro-2-butanone]
CPLA2
  IC50: 2.8 µM
CPLA2 activity in vivo
  CPLA2 activity in vivo / skin inflammation: suppression of skin inflammation

## COc1ccc(S(=O)(=O)N(CCO)c2ccccc2CN(C)C/C=C/c2ccc(Cl)cc2)cc1 [KN-93]
[2]; [9]
  after-contractions: do not produce after-contractions; also recorded: suppression of after-contractions

## ryanodine
[2]; [10]
  after-contractions: after-contractions continued to occur
  mechanical force: greatly diminished mechanical force

## COc1ccc(S(=O)(=O)Nc2ccccc2CN(C)C/C=C/c2ccc(Cl)cc2)cc1 [KN-92]
[2]; [9]
  after-contractions: does not prevent after-contractions; also recorded: does not suppress after-contractions

## COc1ccc(CCN(C)CCCC(C#N)(c2ccc(OC)c(OC)c2)C(C)C)cc1OC (stereo not drawn) [verapamil]
[2]; 10 μM verapamil, paced at 1 Hz, steady-state ATX-II after-contractions
  production of after-contractions: did not affect the production of after-contractions

## COc1cccc2c1cc([N+](=O)[O-])c1c(C(=O)O)cc3c(c12)OCO3 [aristolochic acid, 8-methoxy-6-nitrophenanthro[3,4-d][1,3]dioxole-5-carboxylic acid]
[6]
  after contractions: suppress after contractions
  IC50: 31 ± 5 µM
[3]
  after-depolarization: effectively inhibit after-depolarization; also recorded: suppress after-depolarization

## methyl-β-cyclodextrin
[2]; 10 mM MβC superfusion then wash, ~30 nM ATX-II, 20 min recording
  after-contractions: produced no after-contractions
[2]; cardiac muscle
  concentration as low as which ectopic contractions are effectively eliminated: 10 mM
[5]
  store-operated calcium channel (SOCC) activity: only reducing the activity of the SOCC to a minor degree
ARC channel
  ARC channel activity: completely suppresses ARC channel activity
[3]
  concentration as low as which after-depolarization is effectively eliminated: 10 mM
